Series [1] concerns Rattus norvegicus. Briefly: CNS toxicity in iv dosed Sprague-Dawley rat assessed as cumulative convulsion dose. The format is organism-based. The settings on record: in vivo.
The test system of series [2] is Rattus norvegicus. Briefly: Antiarrhythmic activity in intravenously dosed Sprague-Dawley rat with ischemia-induced arrhythmia. It is filed as functional, Heart.
The target of series [3] is Potassium voltage-gated channel subfamily A member 5 (Homo sapiens, UniProt P22460). As to the kind of experiment: Inhibition of human potassium channel Kv1.5 by patch-clamp method. Background: Patch clamp records ionic current or voltage across a cell membrane.
Series [4] addresses T1, A-type voltage-gated potassium channel KCND2 (Rattus norvegicus, UniProt Q63881).
T1 sequence (Q63881 whole entry): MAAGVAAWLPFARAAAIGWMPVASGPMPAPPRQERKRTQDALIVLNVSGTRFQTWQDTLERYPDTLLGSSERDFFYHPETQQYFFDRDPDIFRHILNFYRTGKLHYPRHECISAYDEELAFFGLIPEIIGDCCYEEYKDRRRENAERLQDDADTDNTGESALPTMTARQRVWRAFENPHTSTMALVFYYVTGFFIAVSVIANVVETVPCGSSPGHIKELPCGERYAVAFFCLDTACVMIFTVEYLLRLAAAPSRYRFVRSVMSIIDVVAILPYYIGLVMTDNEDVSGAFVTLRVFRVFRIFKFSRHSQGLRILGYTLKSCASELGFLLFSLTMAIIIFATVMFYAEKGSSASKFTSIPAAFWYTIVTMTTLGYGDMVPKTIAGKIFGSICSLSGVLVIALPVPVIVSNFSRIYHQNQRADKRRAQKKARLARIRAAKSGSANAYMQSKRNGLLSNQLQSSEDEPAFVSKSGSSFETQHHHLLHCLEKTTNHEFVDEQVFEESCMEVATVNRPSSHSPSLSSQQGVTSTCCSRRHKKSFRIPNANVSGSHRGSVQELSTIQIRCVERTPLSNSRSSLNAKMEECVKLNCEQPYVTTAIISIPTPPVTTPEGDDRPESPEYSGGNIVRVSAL
As to the kind of experiment: Inhibition of rat potassium channel Kv4.2 by patch-clamp method.

Series [5] concerns the target T2, Potassium voltage-gated channel subfamily B member 1 (Rattus norvegicus, UniProt P15387).
T2 sequence (P15387 whole entry): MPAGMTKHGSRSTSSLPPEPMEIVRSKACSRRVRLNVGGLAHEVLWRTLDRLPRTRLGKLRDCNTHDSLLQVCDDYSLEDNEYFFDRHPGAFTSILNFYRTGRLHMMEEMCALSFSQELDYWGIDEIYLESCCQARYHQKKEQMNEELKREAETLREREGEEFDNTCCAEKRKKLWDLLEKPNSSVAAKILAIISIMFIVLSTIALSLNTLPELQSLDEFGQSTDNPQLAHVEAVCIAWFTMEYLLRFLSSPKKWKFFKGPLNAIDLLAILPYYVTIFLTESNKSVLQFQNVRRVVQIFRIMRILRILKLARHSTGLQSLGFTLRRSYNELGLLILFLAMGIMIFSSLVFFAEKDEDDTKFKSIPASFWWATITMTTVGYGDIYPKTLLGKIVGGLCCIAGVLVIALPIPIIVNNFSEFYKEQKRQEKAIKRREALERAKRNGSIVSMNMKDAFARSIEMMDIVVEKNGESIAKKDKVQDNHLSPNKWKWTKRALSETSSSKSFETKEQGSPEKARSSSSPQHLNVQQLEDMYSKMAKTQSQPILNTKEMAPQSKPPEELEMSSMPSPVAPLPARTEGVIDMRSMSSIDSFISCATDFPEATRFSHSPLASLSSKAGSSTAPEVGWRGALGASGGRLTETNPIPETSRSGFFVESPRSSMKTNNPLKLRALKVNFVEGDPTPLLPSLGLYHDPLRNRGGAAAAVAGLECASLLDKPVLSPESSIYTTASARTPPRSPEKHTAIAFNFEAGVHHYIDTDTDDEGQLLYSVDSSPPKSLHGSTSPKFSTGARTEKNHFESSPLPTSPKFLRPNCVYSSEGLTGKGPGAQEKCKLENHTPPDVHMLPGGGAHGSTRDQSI
Briefly: Inhibition of rat potassium channel Kv2.1 by patch-clamp method.

Series [6] in a line: (§1) Half life in Wistar rat at 17 mg/kg. iv. The format is ADME, organism-based. Set-up: dose 17 mg/kg, route intravenous. The settings on record: Wistar, in vivo.
Series [7] is described as follows: (§2) Volume of distribution at steady state in Wistar rat at 17 mg/kg. iv. It is filed as ADME, organism-based. The settings on record: Wistar, in vivo, read-out: Vdss. More on the design: dose 17 mg/kg, route intravenous.
Series [8] in a line: Clearance in Wistar rat at 17 mg/kg. iv. The format is ADME, organism-based. The settings on record: in vivo. Set-up: dose 17 mg/kg, route intravenous.
Series [9] is described as follows: (§3) Oral bioavailability in Wistar rat at 34 mg/kg. […]. It is filed as ADME, organism-based. The settings on record: Wistar, in vivo, oral.
Series [10] addresses Sodium channel protein type 5 subunit alpha (Homo sapiens, UniProt Q14524).
Description: Inhibition of human heart sodium channel Nav1.5 by patch-clamp method
Series [11] is filed under the species Canis familiaris. Briefly: Effect on Mongrel dog vagal atrial fibrillation model assessed as conversion of atrial fibrillation to normal sinus rhythm. It is filed as functional, organism-based. The settings on record: Canis lupus familiaris; Cardiac atrium.
Series [12] is filed under the species Canis familiaris. Briefly: Effect on Mongrel dog vagal atrial fibrillation model assessed as dose for conversion of atrial fibrillation to normal sinus rhythm. The format is functional, Canis lupus familiaris, Cardiac atrium.
The species entered for series [13] is Canis familiaris. As to the kind of experiment: Effect on Mongrel dog sterile pericarditis atrial fibrillation model assessed as conversion of atrial fibrillation to normal sinus rhythm. It is filed as functional, organism-based. The settings on record: Canis lupus familiaris; Cardiac atrium.
The species entered for series [14] is Canis familiaris. Briefly: Effect on Mongrel dog sterile pericarditis atrial fibrillation model assessed as dose for conversion of atrial fibrillation to normal sinus rhythm. The format is functional, Canis lupus familiaris, Cardiac atrium.
Series [15] in a line: Half life in Wistar rat at 12 mg/kg. iv. The format is ADME, organism-based. More on the design: dose 12 mg/kg, route intravenous. The settings on record: in vivo.
A short description of series [16]: Volume of distribution at steady state in Wistar rat at 12 mg/kg. iv. It is filed as ADME, organism-based. Set-up: dose 12 mg/kg, route intravenous. The settings on record: in vivo, read-out: Vdss.
Series [17] can be described thus: Clearance in Wistar rat at 12 mg/kg. iv. Set-up: dose 12 mg/kg, route intravenous. The format is ADME, organism-based. The settings on record: in vivo.
Series [18] can be described thus: Oral bioavailability in Wistar rat at 24 mg/kg. […]. The format is ADME, organism-based. The settings on record: in vivo.
For series [19], the species on record is Canis familiaris. Briefly: Reduction of blood pressure in Mongrel dog vagal atrial fibrillation model. The format is functional, organism-based. The settings on record: Canis lupus familiaris.
The species entered for series [20] is Canis familiaris. Briefly: Reduction of heart rate in Mongrel dog vagal atrial fibrillation model. It is filed as functional, organism-based. The settings on record: Canis lupus familiaris.
The next series in a line: in vivo. The settings on record: CD1, mouse, iv.
Series [21] relates to Rattus norvegicus. Described as §1. It is filed as ADME, organism-based. Set-up: dose 17 mg/kg, route intravenous. The settings on record: in vivo.
The subject of series [22] is Rattus norvegicus. The description is as §2. The format is ADME, organism-based. More on the design: dose 17 mg/kg, route intravenous. The settings on record: in vivo.
In series [23] the test system is Rattus norvegicus. Described as §3. It is filed as ADME, organism-based. The settings on record: in vivo.
The subject of series [24] is Rattus norvegicus. Briefly: Hemodynamic effect in intravenously dosed Sprague-Dawley rat with ischemia-induced arrhythmia assessed as dose producing 10% reduction in systemic blood pressure. It is filed as functional.

Each structure is given as a SMILES string. Active and inactive are the calls of the source.

One may read the ED50 as the dose that gives a 50% effect, or the effect in half of the subjects. High values mean a need for a large dose, low ones an effect at a small dose. The IC50 is the concentration that inhibits the measured activity by half. Read a high IC50 as weaker potency. By half-life is commonly meant the time needed for the level to fall by half in the phase considered. High values mean slow decline, low ones rapid decline. A word on the clearance: it is the volume of plasma or blood freed of the substance per unit of time. Low values mean a low capacity for elimination, high ones a high capacity for elimination. By bioavailability is commonly meant the share of a dose that reaches the circulation, judged against a reference dose that is usually intravenous. A lower bioavailability goes with poor availability. The LD50 is the dose expected to kill half of the subjects tested. Low values mean a more toxic substance, high ones a less toxic substance. What is called Vdss is the apparent volume that relates the amount in the body to the concentration in plasma or blood. Higher therefore signals extensive tissue distribution.

Chain of Sodium channel protein type 5 subunit alpha (Q14524 whole entry): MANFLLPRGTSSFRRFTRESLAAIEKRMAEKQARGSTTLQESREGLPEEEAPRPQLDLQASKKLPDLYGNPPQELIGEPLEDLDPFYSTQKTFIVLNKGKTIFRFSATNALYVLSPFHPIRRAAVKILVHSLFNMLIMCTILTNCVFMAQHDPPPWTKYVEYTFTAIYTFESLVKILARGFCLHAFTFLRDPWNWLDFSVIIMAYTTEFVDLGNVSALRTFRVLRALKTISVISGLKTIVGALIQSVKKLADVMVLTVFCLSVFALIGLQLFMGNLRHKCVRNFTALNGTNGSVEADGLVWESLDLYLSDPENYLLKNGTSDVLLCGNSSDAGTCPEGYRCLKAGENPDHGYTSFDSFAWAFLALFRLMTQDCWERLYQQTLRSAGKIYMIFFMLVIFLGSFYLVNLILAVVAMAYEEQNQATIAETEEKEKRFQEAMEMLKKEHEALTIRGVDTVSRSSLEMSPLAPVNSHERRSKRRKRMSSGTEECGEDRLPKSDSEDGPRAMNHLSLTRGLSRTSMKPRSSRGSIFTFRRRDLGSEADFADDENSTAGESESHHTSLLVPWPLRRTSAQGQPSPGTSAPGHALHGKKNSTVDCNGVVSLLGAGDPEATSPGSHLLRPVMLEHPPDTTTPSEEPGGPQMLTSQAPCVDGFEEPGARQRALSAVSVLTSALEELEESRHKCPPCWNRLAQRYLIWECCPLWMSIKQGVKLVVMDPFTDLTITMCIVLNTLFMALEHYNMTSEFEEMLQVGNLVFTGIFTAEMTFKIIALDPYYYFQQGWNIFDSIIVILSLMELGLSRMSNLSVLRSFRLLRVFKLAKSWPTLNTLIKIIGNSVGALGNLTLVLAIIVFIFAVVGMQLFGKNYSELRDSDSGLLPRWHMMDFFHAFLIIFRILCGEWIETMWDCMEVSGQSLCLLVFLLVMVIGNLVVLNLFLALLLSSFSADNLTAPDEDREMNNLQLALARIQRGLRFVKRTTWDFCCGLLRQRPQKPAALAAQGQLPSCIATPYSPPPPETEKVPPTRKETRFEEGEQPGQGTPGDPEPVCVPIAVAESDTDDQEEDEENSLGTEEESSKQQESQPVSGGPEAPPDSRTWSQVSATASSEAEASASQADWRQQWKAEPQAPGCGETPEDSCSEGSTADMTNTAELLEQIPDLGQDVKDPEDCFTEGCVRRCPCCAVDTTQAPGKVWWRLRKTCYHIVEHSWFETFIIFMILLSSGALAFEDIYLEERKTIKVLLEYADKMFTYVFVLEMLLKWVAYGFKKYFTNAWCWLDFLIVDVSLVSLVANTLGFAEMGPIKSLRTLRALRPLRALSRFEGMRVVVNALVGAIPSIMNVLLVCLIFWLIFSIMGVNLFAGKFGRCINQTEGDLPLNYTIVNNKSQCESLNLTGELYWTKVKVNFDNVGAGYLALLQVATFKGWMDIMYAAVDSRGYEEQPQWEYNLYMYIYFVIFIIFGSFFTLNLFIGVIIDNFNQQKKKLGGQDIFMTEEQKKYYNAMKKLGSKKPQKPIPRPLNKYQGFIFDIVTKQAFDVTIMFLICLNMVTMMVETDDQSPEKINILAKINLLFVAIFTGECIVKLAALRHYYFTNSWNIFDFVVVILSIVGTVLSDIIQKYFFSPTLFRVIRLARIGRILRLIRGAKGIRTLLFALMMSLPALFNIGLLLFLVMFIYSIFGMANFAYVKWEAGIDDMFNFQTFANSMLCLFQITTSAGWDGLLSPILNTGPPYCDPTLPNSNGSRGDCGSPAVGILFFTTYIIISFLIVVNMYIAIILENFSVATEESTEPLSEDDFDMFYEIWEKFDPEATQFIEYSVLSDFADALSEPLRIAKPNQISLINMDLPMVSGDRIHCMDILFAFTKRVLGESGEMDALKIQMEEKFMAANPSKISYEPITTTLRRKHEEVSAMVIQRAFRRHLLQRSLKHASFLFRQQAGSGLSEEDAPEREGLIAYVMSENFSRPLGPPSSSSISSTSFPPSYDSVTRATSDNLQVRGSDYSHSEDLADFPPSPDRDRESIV
Chain of Potassium voltage-gated channel subfamily A member 5 (P22460 whole entry): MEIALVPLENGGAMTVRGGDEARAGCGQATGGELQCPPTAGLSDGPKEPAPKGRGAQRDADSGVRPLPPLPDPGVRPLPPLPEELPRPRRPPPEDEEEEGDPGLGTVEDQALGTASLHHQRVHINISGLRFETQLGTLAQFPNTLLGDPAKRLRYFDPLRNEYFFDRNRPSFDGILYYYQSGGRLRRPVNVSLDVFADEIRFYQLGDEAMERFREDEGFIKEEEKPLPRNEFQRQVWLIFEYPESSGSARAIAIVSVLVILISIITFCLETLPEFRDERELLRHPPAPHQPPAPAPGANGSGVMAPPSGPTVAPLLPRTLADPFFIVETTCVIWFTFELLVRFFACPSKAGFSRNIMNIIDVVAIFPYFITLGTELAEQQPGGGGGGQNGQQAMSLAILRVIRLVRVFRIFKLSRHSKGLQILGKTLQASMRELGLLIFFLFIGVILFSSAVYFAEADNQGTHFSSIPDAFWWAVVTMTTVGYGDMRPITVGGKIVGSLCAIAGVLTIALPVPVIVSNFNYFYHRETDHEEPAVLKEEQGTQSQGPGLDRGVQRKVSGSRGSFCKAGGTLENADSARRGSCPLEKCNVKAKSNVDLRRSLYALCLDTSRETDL
Description for in vivo: Toxicity in intravenously dosed CD1 mouse

As for `O=C1CCN([C@H]2CCCC[C@@H]2OCCc2cccc3ccccc23)C1`, in the series with Rattus norvegicus [1], the Activity amounted to 150 µmol/kg. The compound further came in with a 50% effective dose (ED50) with Rattus norvegicus [2] of 1.9 µmol/kg/min. The half-maximal inhibitory concentration (IC50) in [3] amounted to 7.7 µM; in series [4] it was 9 µM; in series [5], 8 µM; in [10] it was 13 µM. Also, the half-life in [6] is 1 h. For the same compound, in series [7], the Vd was 2.6 L/kg. Moreover, the clearance in [8] amounted to 30.2 mL/min/kg. This compound had a bioavailability in [9] of 32%.
Take `Clc1ccc(CCO[C@@H]2CCCC[C@H]2N2CCOCC2)cc1Cl`: the Activity in the series on Rattus norvegicus [1] came out at 118 µmol/kg; in the series listed under Canis familiaris [12], 17 µmol/kg; in the series listed under Canis familiaris [14], 10 µmol/kg. The same compound registered a median effective dose (ED50) in the series with Rattus norvegicus [2] of 1.5 µmol/kg/min. For the same compound, the IC50 amounted to 3.6 µM in series [3], 11 µM in [4], 2.4 µM in series [5] and 15 µM in series [10]. The outcome in the series listed under Canis familiaris [11] and in the series filed under Canis familiaris [13] was Active. Also, in series [15], the half-life was 4.5 h. Also, the Vd in series [16] stood at 19 L/kg. In addition, in series [17], the clearance was 48.5 mL/min/kg. This compound returned a bioavailability in [18] of 7%. In addition, the outcome in the series listed under Canis familiaris [19] and in the series filed under Canis familiaris [20] was inactive. This compound yielded an LD50 in the series “in vivo” of 228 µmol/kg.
On to `O=C1CCN([C@@H]2CCCC[C@H]2OCCc2cccc3ccccc23)C1` (stereo in doubt; 40), for which the Activity in the series with Rattus norvegicus [1] was found to be 193 µmol/kg. In the series with Rattus norvegicus [2], this compound displayed an ED50 of 1.2 µmol/kg/min. The IC50 in [3] is 5.9 µM; in series [4], 11 µM; in series [5], 6 µM; in [10], 11 µM. For the same compound, in the series with Rattus norvegicus [21], the t1/2 came out at 3.8 h. In addition, in the series with Rattus norvegicus [22], the distribution volume (Vdss) came out at 8.3 L/kg. Besides, in the series with Rattus norvegicus [23], the F amounted to 6%.
With `c1ccc2c(CCO[C@@H]3CCCC[C@H]3N3CCOCC3)cccc2c1`, the Activity in the series with Rattus norvegicus [1] was found to be 93 µmol/kg; in the series filed under Canis familiaris [14], 8 µmol/kg. The median effective dose (ED50) with Rattus norvegicus [2] worked out at 0.8 µmol/kg/min. Further, the IC50 in [3] came to 1.3 µM; in series [4], 17 µM; in series [5], 3.2 µM; in series [10], 4 µM. In addition, the outcome in the series listed under Canis familiaris [13] was Active. Besides, in series [15], the half-life was 6.5 h. In addition, the Vd in series [16] was determined as 29 L/kg. The clearance in series [17] was found to be 50.1 mL/min/kg. The compound also came in with a bioavailability in series [18] of 4%. The result in the series listed under Canis familiaris [19] and in the series listed under Canis familiaris [20] was inactive. For the same compound, the median lethal dose (LD50) in “in vivo” was found to be 42 µmol/kg.
On to `CCCCc1oc2ccccc2c1C(=O)c1cc(I)c(OCCN(CC)CC)c(I)c1` [AMIODARONE], for which the Activity with Rattus norvegicus [24] was 4 µmol/kg/min.
As to `O=C1CCN([C@@H]2CCCC[C@H]2OCCc2cccc3ccccc23)C1` (stereo in doubt; 26), in the series on Rattus norvegicus [1], the Activity amounted to 225 µmol/kg. Besides, in the series on Rattus norvegicus [2], the median effective dose (ED50) was 0.4 µmol/kg/min. Besides, the concentration for half-maximal inhibition (IC50) stood at 4.3 µM in series [3], 8.9 µM in [4], 2.8 µM in [5] and 25 µM in [10]. The half-life in series [6] is 6.3 h. Besides, the Vd in series [7] stood at 4.5 L/kg. In addition, the clearance in series [8] came to 38.7 mL/min/kg. In the series on Rattus norvegicus [23], this compound displayed an F of 58%. The compound further yielded an LD50 in the series “in vivo” of 227 µmol/kg.

For the origin of these results see ChEMBL document CHEMBL1143695, “Synthesis and biological studies of novel 2-aminoalkylethers as potential antiarrhythmic agents for the conversion of atrial fibrillation” (J Med Chem, 2007).
